From ChEMBL document CHEMBL1201862, “PubChem BioAssay data set” (2004)
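Step 1: Grow cells in 96-well plates. Step 2: Expose to compound for 48 hours at 5 concentrations. Step 3: Interpolate endpoints linearly; if unreached, use highest concentration. The concentration for 50% growth inhibition is given as GI50.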 Calls of active or inactive are those of the source. Rule as the data show it: active = GI50 up to about 1.1 µM and inactive = higher.

Assays:
Assay in all cases: inhibition of tumour cell growth, NCI panel, 48 h
[1] = tested on: A498
[2] = tested on: TK-10
[3] = tested on: HOP-62
[4] = tested on: MOLT-4
[5] = tested on: NCI-H226
[6] = tested on: K562
[7] = tested on: MDA-MB-231
[8] = tested on: IGROV-1
[9] = tested on: SW-620
[10] = tested on: NCI-H23
[11] = tested on: MCF7
[12] = tested on: COLO 205
[13] = tested on: Hs-578T
[14] = tested on: OVCAR-8
[15] = tested on: KM12
[16] = tested on: OVCAR-4
[17] = tested on: LOX IMVI
[18] = tested on: SNB-75
[19] = tested on: SK-MEL-5
[20] = tested on: CAKI-1
[21] = tested on: 786-0
[22] = tested on: PC-3
[23] = tested on: A549
[24] = tested on: M14
[25] = tested on: T47D
[26] = tested on: NCI-H460
[27] = tested on: MDA-N
[28] = tested on: UO-31
[29] = tested on: BT-549
[30] = tested on: HT-29
[31] = tested on: MDA-MB-435
[32] = tested on: CCRF-CEM
[33] = tested on: OVCAR-5
[34] = tested on: HL-60
[35] = tested on: DU-145
[36] = tested on: HCC 2998
[37] = tested on: SF-268
[38] = tested on: EKVX
[39] = tested on: SR
[40] = tested on: NCI/ADR-RES
[41] = tested on: UACC-62
[42] = tested on: SN12C
[43] = tested on: SF-295
[44] = tested on: SK-MEL-28
[45] = tested on: ACHN
[46] = tested on: SF-539
[47] = tested on: SNB-19
[48] = tested on: HCT-15
[49] = tested on: HOP-92
[50] = tested on: RPMI-8226
[51] = tested on: U-251
[52] = tested on: HCT-116
[53] = tested on: UACC-257
[54] = tested on: NCI-H522
[55] = tested on: SK-OV-3
[56] = tested on: OVCAR-3
[57] = tested on: SK-MEL-2
[58] = tested on: RXF 393
[59] = tested on: Malme-3M

SMILES: O=C1N2CCN=C2c2ccccc2C1(O)c1ccccc1 (stereo unspecified)
- GI50 [1]: > 100 µM (inactive)
- GI50 [2]: > 100 µM (inactive)
- GI50 [3]: > 100 µM (inactive)
- GI50 [4]: > 100 µM (inactive)
- GI50 [5]: > 100 µM (inactive)
- GI50 [6]: > 100 µM (inactive)
- GI50 [7]: > 100 µM (inactive)
- GI50 [8]: > 100 µM (inactive)
- GI50 [9]: > 100 µM (inactive)
- GI50 [10]: > 100 µM (inactive)
- GI50 [11]: > 100 µM (inactive)
- GI50 [12]: > 100 µM (inactive)
- GI50 [13]: > 100 µM (inactive)
- GI50 [14]: > 100 µM (inactive)
- GI50 [15]: > 100 µM (inactive)
- GI50 [16]: > 100 µM (inactive)
- GI50 [17]: > 100 µM (inactive)
- GI50 [18]: > 100 µM (inactive)
- GI50 [19]: > 100 µM (inactive)
- GI50 [20]: > 100 µM (inactive)
- GI50 [21]: > 100 µM (inactive)
- GI50 [22]: > 100 µM (inactive)
- GI50 [23]: > 100 µM (inactive)
- GI50 [24]: > 100 µM (inactive)
- GI50 [25]: > 100 µM (inactive)
- GI50 [26]: > 100 µM (inactive)
- GI50 [27]: > 100 µM (inactive)
- GI50 [28]: > 100 µM (inactive)
- GI50 [29]: > 100 µM (inactive)
- GI50 [30]: > 100 µM (inactive)
- GI50 [31]: > 100 µM (inactive)
- GI50 [32]: > 100 µM (inactive)
- GI50 [33]: > 100 µM (inactive)
- GI50 [34]: > 100 µM (inactive)
- GI50 [35]: > 100 µM (inactive)
- GI50 [36]: > 100 µM (inactive)
- GI50 [37]: > 100 µM (inactive)
- GI50 [38]: > 100 µM (inactive)
- GI50 [39]: > 100 µM (inactive)
- GI50 [40]: > 100 µM (inactive)
- GI50 [41]: > 100 µM (inactive)
- GI50 [42]: > 100 µM (inactive)
- GI50 [43]: > 100 µM (inactive)
- GI50 [44]: > 100 µM (inactive)
- GI50 [45]: > 100 µM (inactive)
- GI50 [46]: > 100 µM (inactive)
- GI50 [47]: > 100 µM (inactive)
- GI50 [48]: > 100 µM
- GI50 [49]: > 100 µM (inactive)
- GI50 [50]: > 100 µM (inactive)
- GI50 [51]: > 100 µM (inactive)
- GI50 [52]: > 100 µM (inactive)
- GI50 [53]: > 100 µM (inactive)

SMILES: Clc1ncc(C(Cl)(Cl)Cl)nc1-c1ccccc1
- GI50 [2]: 2.3 µM (inactive)
- GI50 [3]: 2.26 µM (inactive)
- GI50 [4]: 4.75 µM (inactive)
- GI50 [5]: 18.4 µM (inactive)
- GI50 [6]: 2.46 µM (inactive)
- GI50 [7]: 1.97 µM (inactive)
- GI50 [8]: 2.4 µM (inactive)
- GI50 [9]: 4.21 µM (inactive)
- GI50 [54]: 2.52 µM (inactive)
- GI50 [10]: 2.24 µM (inactive)
- GI50 [11]: 1.68 µM (inactive)
- GI50 [12]: 1.87 µM (inactive)
- GI50 [55]: 11.9 µM (inactive)
- GI50 [13]: 2.82 µM (inactive)
- GI50 [14]: 2.57 µM (inactive)
- GI50 [15]: 1.82 µM (inactive)
- GI50 [16]: 4.04 µM (inactive)
- GI50 [17]: 4.13 µM (inactive)
- GI50 [18]: 2.56 µM (inactive)
- GI50 [19]: 12.2 µM (inactive)
- GI50 [20]: 2.2 µM (inactive)
- GI50 [21]: 1.95 µM (inactive)
- GI50 [22]: 1.78 µM (inactive)
- GI50 [23]: 6.46 µM (inactive)
- GI50 [24]: 2.23 µM (inactive)
- GI50 [25]: 1.96 µM (inactive)
- GI50 [26]: 3.01 µM (inactive)
- GI50 [27]: 1.87 µM (inactive)
- GI50 [28]: 1.84 µM (inactive)
- GI50 [29]: 1.65 µM (inactive)
- GI50 [30]: 1.82 µM (inactive)
- GI50 [31]: 1.77 µM (inactive)
- GI50 [32]: 14.6 µM (inactive)
- GI50 [56]: 1.72 µM (inactive)
- GI50 [33]: 16.1 µM (inactive)
- GI50 [57]: 2.27 µM (inactive)
- GI50 [34]: 2.7 µM (inactive)
- GI50 [35]: 1.61 µM (inactive)
- GI50 [36]: 1.52 µM (inactive)
- GI50 [37]: 2.19 µM (inactive)
- GI50 [38]: 2.29 µM (inactive)
- GI50 [39]: 3.85 µM (inactive)
- GI50 [40]: 4.07 µM (inactive)
- GI50 [41]: 2.56 µM (inactive)
- GI50 [42]: 2.86 µM (inactive)
- GI50 [58]: 1.64 µM (inactive)
- GI50 [43]: 3.63 µM (inactive)
- GI50 [59]: 5.14 µM (inactive)
- GI50 [44]: 3.79 µM (inactive)
- GI50 [45]: 1.68 µM (inactive)
- GI50 [46]: 2.63 µM (inactive)
- GI50 [47]: 1.69 µM (inactive)
- GI50 [48]: 1.21 µM
- GI50 [49]: 1.99 µM (inactive)
- GI50 [50]: 0.598 µM (active)
- GI50 [51]: 1.84 µM (inactive)
- GI50 [52]: 1.87 µM (inactive)
- GI50 [53]: 2.14 µM (inactive)
